Assay results as given in PubChem BioAssay (NCI).
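48-hour exposure; five concentrations; linearly interpolated endpoints. The concentration for 50% growth inhibition is given as GI50. At the TGI there is no net growth.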

Assays:
Experiment in all cases: DTP human tumour cell line panel, 48 h
[1] = tested on: CAKI-1 renal
[2] = tested on: TK-10 renal
[3] = tested on: HOP-92 NSCLC
[4] = tested on: SW-620 colon
[5] = tested on: UO-31 renal
[6] = tested on: NCI-H460 lung
[7] = tested on: SK-MEL-28 melanoma
[8] = tested on: HCT-15 colon
[9] = tested on: OVCAR-5 ovarian
[10] = tested on: SNB-19 CNS
[11] = tested on: RPMI-8226 leukemia
[12] = tested on: UACC-62 melanoma
[13] = tested on: MOLT-4 leukemia
[14] = tested on: U251 CNS
[15] = tested on: SN12C renal
[16] = tested on: KM12 colon
[17] = tested on: COLO 205 colon
[18] = tested on: CCRF-CEM leukemia
[19] = tested on: 786-0 renal
[20] = tested on: SK-MEL-5 melanoma
[21] = tested on: HS 578T breast
[22] = tested on: BT-549 breast
[23] = tested on: LOX IMVI melanoma
[24] = tested on: T-47D breast
[25] = tested on: HCC-2998 colon
[26] = tested on: DU-145 prostate
[27] = tested on: SF-295 CNS
[28] = tested on: HCT-116 colon
[29] = tested on: MCF7 breast
[30] = tested on: MDA-MB-231 breast
[31] = tested on: A549 NSCLC
[32] = tested on: SNB-75 CNS
[33] = tested on: OVCAR-4 ovarian
[34] = tested on: ACHN renal
[35] = tested on: MDA-MB-435
[36] = tested on: OVCAR-3 ovarian
[37] = tested on: SK-MEL-2 melanoma
[38] = tested on: SF-268 CNS
[39] = tested on: NCI-H522 lung
[40] = tested on: NCI/ADR-RES ovarian
[41] = tested on: PC-3 prostate
[42] = tested on: IGROV1 ovarian
[43] = tested on: K-562 leukemia
[44] = tested on: NCI-H226 lung
[45] = tested on: SK-OV-3 ovarian
[46] = tested on: OVCAR-8 ovarian
[47] = tested on: EKVX NSCLC
[48] = tested on: HL-60(TB) leukemia
[49] = tested on: HOP-62 NSCLC

SMILES: Cc1nnc2ccnn2c1C
- GI50 [1]: > 100 µM
- TGI [1]: > 100 µM
- GI50 [2]: > 100 µM
- TGI [2]: > 100 µM
- GI50 [3]: > 100 µM
- TGI [3]: > 100 µM
- GI50 [4]: > 100 µM
- TGI [4]: > 100 µM
- GI50 [5]: > 100 µM
- TGI [5]: > 100 µM
- GI50 [6]: > 100 µM
- TGI [6]: > 100 µM
- GI50 [7]: > 100 µM
- TGI [7]: > 100 µM
- GI50 [8]: > 100 µM
- TGI [8]: > 100 µM
- GI50 [9]: 17.6 µM
- TGI [9]: 34.6 µM
- GI50 [10]: > 100 µM
- TGI [10]: > 100 µM
- GI50 [11]: > 100 µM
- TGI [11]: > 100 µM
- GI50 [12]: > 100 µM
- TGI [12]: > 100 µM
- GI50 [13]: > 100 µM
- TGI [13]: > 100 µM
- GI50 [14]: > 100 µM
- TGI [14]: > 100 µM
- GI50 [15]: > 100 µM
- TGI [15]: > 100 µM
- GI50 [16]: > 100 µM
- TGI [16]: > 100 µM
- GI50 [17]: > 100 µM
- TGI [17]: > 100 µM
- GI50 [18]: > 100 µM
- TGI [18]: > 100 µM
- GI50 [19]: > 100 µM
- TGI [19]: > 100 µM
- GI50 [20]: 23.8 µM
- TGI [20]: > 100 µM
- GI50 [21]: > 100 µM
- TGI [21]: > 100 µM
- GI50 [22]: > 100 µM
- TGI [22]: > 100 µM
- GI50 [23]: > 100 µM
- TGI [23]: > 100 µM
- GI50 [24]: > 100 µM
- TGI [24]: > 100 µM
- GI50 [25]: 18.1 µM
- TGI [25]: 33.1 µM
- GI50 [26]: > 100 µM
- TGI [26]: > 100 µM
- GI50 [27]: > 100 µM
- TGI [27]: > 100 µM
- GI50 [28]: > 100 µM
- TGI [28]: > 100 µM
- GI50 [29]: > 100 µM
- TGI [29]: > 100 µM
- GI50 [30]: > 100 µM
- TGI [30]: > 100 µM
- GI50 [31]: > 100 µM
- TGI [31]: > 100 µM
- GI50 [32]: > 100 µM
- TGI [32]: > 100 µM
- GI50 [33]: > 100 µM
- TGI [33]: > 100 µM
- GI50 [34]: > 100 µM
- TGI [34]: > 100 µM
- GI50 [35]: > 100 µM
- TGI [35]: > 100 µM
- GI50 [36]: > 100 µM
- TGI [36]: > 100 µM
- GI50 [37]: > 100 µM
- TGI [37]: > 100 µM
- GI50 [38]: > 100 µM
- TGI [38]: > 100 µM
- GI50 [39]: 66.3 µM
- TGI [39]: > 100 µM
- GI50 [40]: 20.5 µM
- TGI [40]: 43.4 µM
- GI50 [41]: > 100 µM
- TGI [41]: > 100 µM
- GI50 [42]: > 100 µM
- TGI [42]: > 100 µM
- GI50 [43]: > 100 µM
- TGI [43]: > 100 µM
- GI50 [44]: > 100 µM
- TGI [44]: > 100 µM
- GI50 [45]: > 100 µM
- TGI [45]: > 100 µM
- GI50 [46]: > 100 µM
- TGI [46]: > 100 µM
- TGI [47]: 0.962 µM
- GI50 [48]: > 100 µM
- TGI [48]: > 100 µM
- GI50 [49]: > 100 µM
- TGI [49]: > 100 µM
